Reference: patent publication US20190307843A1, “SINGLE DOSE METHODS FOR PREVENTING AND TREATING FUNGAL INFECTIONS” (Cidara Therapeutics, Inc., priority 2016, published 2019)
Read-outs that look alike come from different tables or passages of the source. Starred links: 1 amine or outer side, 2 acyl side, 3 side chain; linkers in the order of their positions; H or OH if unused. Positions of bridges follow the written chain, without caps; N, C: chain ends. Non-standard residues stand in square brackets, D forms with d. Residues, ends and D or L forms follow the SMILES beside them. *: point of attachment. Orn(4R-OH,5R-OCH2CH2NMe3+) = C[N+](C)(C)CCO[C@@H](N[*:3])[C@H](O)C[C@H](N[*:1])C(=O)[*:2]; pTerphenylCO(4''-OnC5H11) = CCCCCOc1ccc(-c2ccc(-c3ccc(C(=O)*)cc3)cc2)cc1; hTyr(3S-OH,4S-OH) = N[C@H](C(=O)O)[C@H](O)[C@@H](O)c1ccc(O)cc1; Pro(3S-OH,4S-Me) = C[C@H]1CN[C@H](C(=O)O)[C@H]1O; Hyp = O=C(O)[C@@H]1C[C@@H](O)CN1

Tested on: Candida auris strains
Assay: Candida auris antifungal susceptibility testing (CLSI M27-A3), 38 strains
Assay type: cell-based
Settings: Candidozyma auris, read-out: MIC

Q: Which results are given for `CCCCCOc1ccc(-c2ccc(-c3ccc(C(=O)N[C@H]4C[C@@H](O)[C@@H](OCC[N+](C)(C)C)NC(=O)[C@@H]5[C@@H](O)[C@@H](C)CN5C(=O)[C@H]([C@@H](C)O)NC(=O)[C@H]([C@H](O)[C@@H](O)c5ccc(O)cc5)NC(=O)[C@@H]5C[C@@H](O)CN5C(=O)[C@H]([C@@H](C)O)NC4=O)cc3)cc2)cc1` [CD101] ({pTerphenylCO(4''-OnC5H11)}-[Orn(4R-OH,5R-OCH2CH2NMe3+)]T[Hyp][hTyr(3S-OH,4S-OH)]T[Pro(3S-OH,4S-Me)]; lactam 1-C)?
A: MIC (24 h, strain 1 VPCI 669/P/12, 24 h): 0.5 µg/mL; MIC (24 h, strain 2 VCPI 671/P/12, 24 h): 0.5 µg/mL; MIC (24 h, strain 3 VCPI 674/P/12, 24 h): 0.25 µg/mL; MIC (24 h, strain 4 VCPI 683/P/12, 24 h): 0.5 µg/mL; MIC (24 h, strain 5 VCPI 692/P/12, 24 h): 0.5 µg/mL; MIC (24 h, strain 6 VCPI 712/P/12, 24 h): 0.25 µg/mL; MIC (24 h, strain 7 VCPI 471/P/13, 24 h): 0.5 µg/mL; MIC (24 h, strain 8 VCPI 475/P/13, 24 h): 0.5 µg/mL; MIC (24 h, strain 9 VCPI 478/P/13, 24 h): 0.25 µg/mL; MIC (24 h, strain 10 VCPI 479/P/13, 24 h): 0.25 µg/mL; MIC (24 h, strain 11 VCPI 480/P/13, 24 h): 0.25 µg/mL; MIC (24 h, strain 12 VCPI 482/P/13, 24 h): 0.25 µg/mL; MIC (24 h, strain 13 VCPI 483/P/13, 24 h): 0.25 µg/mL; MIC (24 h, strain 14 VCPI 1130/P/13, 24 h): 0.5 µg/mL; MIC (24 h, strain 15 VCPI 1132/P/13, 24 h): 0.5 µg/mL; MIC (24 h, strain 16 VCPI 1133/P/13, 24 h): 16 µg/mL; MIC (24 h, strain 17 VCPI 105/P/14, 24 h): 0.25 µg/mL; MIC (24 h, strain 18 VCPI 107/P/14, 24 h): 0.125 µg/mL; MIC (24 h, strain 19 VCPI 510/P/14, 24 h): 0.25 µg/mL; MIC (24 h, strain 20 VCPI 511/P/14, 24 h): 0.25 µg/mL; MIC (24 h, strain 21 VCPI 512/P/14, 24 h): 0.25 µg/mL; MIC (24 h, strain 22 VCPI 513/P/14, 24 h): 0.5 µg/mL; MIC (24 h, strain 23 VCPI 514/P/14, 24 h): 0.5 µg/mL; MIC (24 h, strain 24 VCPI 250/P/14, 24 h): 0.25 µg/mL; MIC (24 h, strain 25 VCPI 265/P/14, 24 h): 16 µg/mL; MIC (24 h, strain 26 VCPI 266/P/14, 24 h): 0.5 µg/mL; MIC (24 h, strain 27 VCPI 462/P/14, 24 h): 16 µg/mL; MIC (24 h, strain 28 VCPI 463/P/14, 24 h): 0.125 µg/mL; MIC (24 h, strain 29 VCPI 467/P/14, 24 h): 0.25 µg/mL; MIC (24 h, strain 30 VCPI 471a/P/14, 24 h): 16 µg/mL; MIC (24 h, strain 31 VCPI 478/P/14, 24 h): 0.5 µg/mL; MIC (24 h, strain 32 VCPI 518/P/14, 24 h): 0.5 µg/mL; MIC (24 h, strain 33 VCPI 550/P/14, 24 h): 0.5 µg/mL; MIC (24 h, strain 34 VCPI 714/P/14, 24 h): 0.25 µg/mL; MIC (24 h, strain 35 VCPI 717/P/14, 24 h): 0.25 µg/mL; MIC (24 h, strain 36 VCPI 1060/P/14, 24 h): 0.25 µg/mL; MIC (24 h, strain 37 VCPI 74/P/15, 24 h): 0.25 µg/mL; MIC (24 h, strain 38 VCPI 213/P/15, 24 h): 0.25 µg/mL; MIC (48 h, strain 1 VPCI 669/P/12, 48 h): 0.5 µg/mL; MIC (48 h, strain 2 VCPI 671/P/12, 48 h): 0.5 µg/mL; MIC (48 h, strain 3 VCPI 674/P/12, 48 h): 0.25 µg/mL; MIC (48 h, strain 4 VCPI 683/P/12, 48 h): 0.5 µg/mL; MIC (48 h, strain 5 VCPI 692/P/12, 48 h): 0.5 µg/mL; MIC (48 h, strain 6 VCPI 712/P/12, 48 h): 0.25 µg/mL; MIC (48 h, strain 7 VCPI 471/P/13, 48 h): 0.5 µg/mL; MIC (48 h, strain 8 VCPI 475/P/13, 48 h): 0.5 µg/mL; MIC (48 h, strain 9 VCPI 478/P/13, 48 h): 0.25 µg/mL; MIC (48 h, strain 10 VCPI 479/P/13, 48 h): 0.25 µg/mL
